Read-outs that look alike come from different tables or passages of the source.
What was measured:
CD4+CD25+ Treg = type: in vivo, CB6F1 female mice; conditions: for % CD4+ CD25+/ total cell / % Treg/ total cell / CD4+ CD25+ (events): blood, CY 2 mg IP at day 0
Method: (§1) Groups of CB6F1 female mice (n=10/group) received at day 0 sub-cutaneous (SC) 10e5 TC1-Mage3 cells followed by injection of: • Group 1: PBS at day 3-7-11-15 • Group 2: MAGE-A3 (1 μg)/As 15 ASCI at day 3-7-11-15 • Group 3: Cyclophosphamide (CY) (2 mg IP) at day 0+PBS at day 3-7-11-15 • Group 4: CY+MAGE-A3 (1 μg)/AS15 ASCI
(§2) • verification of the depletion by FACS at day 3 and 15 on whole blood • in vivo tumor growth from day 0 to day 28 • ICS at day 28 on spleen cells • serology at day 28 (not completed)
(§3) In order to analyze the impact of 2 mg of CY injected intraperitoneally in mice, 3 and 15 days after the injection blood was taken and lymphocytes count was performed by FACS

lymphocytes = type: in vivo, CB6F1 female mice; conditions: for Total Cell count (multisizer): blood, CY 2 mg IP at day 0
Method: as §1, §2, §3

MAGE-A3 = system: MAGE-A3
Method: as §1, §2
14 days after the last ASCI injection, the T cell response was analyzed by intracellular cytokine staining of CD4 and CD8 using flow cytometry (3 pools per group) after a short in vitro restimulation (2 Hrs) with the pool of MAGE-A3 overlapping peptide spanning the entire MAGE-A3 sequence.

TC1-Mage3 cells = type: in vivo, CB6F1 female mice; conditions: 10e5 TC1 MAGE3 cells SC day 0; cyclophosphamide 2 mg at day 0; groups of 10 mice
Method: as §1, §2

O=P1(N(CCCl)CCCl)NCCCO1 (stereo not shown) [Cyclophosphamide (Cy), Cyclophosphamide]
number of T reg (in words) (CD4+CD25+ Treg; 3 days after 2 mg cyclophosphamide): only slightly decreased the number of T reg but did not deplete them
% CD4+ CD25+/ total cell (CD4+CD25+ Treg; 3 days): 0.1%
% Treg/ total cell (CD4+CD25+ Treg; 3 days): 0.07%
CD4+ CD25+ (events) (CD4+CD25+ Treg; 3 days): 274 events
% CD4+ CD25+/ total cell (CD4+CD25+ Treg; 15 days): 0.16%
% Treg/ total cell (CD4+CD25+ Treg; 15 days): 0.13%
CD4+ CD25+ (events) (CD4+CD25+ Treg; 15 days): 539 events
total number of T cells (in words) (lymphocytes; 3 days after 2 mg CY): has an impact on the total number of T cells
total number of T cells (in words) (lymphocytes; 15 days after the injection of CY): almost restored
Total Cell count (multisizer) (lymphocytes; 3 days after injection): 1 ×10e6 cells/ml
Total Cell count (multisizer) (lymphocytes; 15 days after injection): 5.53 ×10e6 cells/ml
MAGE-A3 specific CD4 response (MAGE-A3; cyclophosphamide by itself, spleen cells day 28, FIG. 1): did not induce any MAGE-A3 specific CD4 response
MAGE-A3 specific CD8 response (MAGE-A3; cyclophosphamide by itself, spleen cells day 28, FIG. 2): did not induce any MAGE_A3 specific CD8 response
effect on the CD4 response induced by the ASCI (MAGE-A3; cyclophosphamide given 3 days before the ASCI, FIG. 1): did not abolish the CD4 response induced by the ASCI there is even a trend in favor of a better response
effect on the CD8 response induced by the ASCI (MAGE-A3; cyclophosphamide given 3 days before the ASCI, FIG. 2): did not abolish the CD8 response induced by the ASCI there is even a trend in favor of a better response
tumor rejection, % of the animals (TC1-Mage3 cells): 100%

Source: patent US20100008980A1, “Use of MAGE A3-Protein D Fusion Antigen in Immunotherapy Combined with Surgery, Chemotherapy or Radiotherapy for the Treatment of Cancer” (priority 2007, published 2010)
